According to patent publication US12534496B2, “Polymorphic forms of Cyclo (-His-Pro) and methods of use to treat kidney disease” (NovMetaPharma Co., Ltd., priority 2018, dated 2026):
Values joined by “and” are separate entries in the source; they are usually repeats but may differ in a detail not shown here. Equal values may be shown once. “Also recorded” adds a separate entry of the source.

What was measured:
Type in all cases: physicochemical
[1] = pH solubility assessment in buffers at 37 °C; conditions: 100 mg solid
Procedure: CHP patterns 1 and 2 were prepared for pH solubility assessment as follows: • 100 mg of CHP pattern 1 and pattern 2 were each weighed out into 4, 5 mL screw top glass vials; • 100 μL of a selected buffer, pre-heated to 37° C., was added to each vial; • Samples were heated to 37° C. in an incubator shaker for ca. 10 minutes after each volume of buffer and checked for sample dissolution.

[2] = Approximate solubility of CHP Pattern 1 by solvent addition technique
Procedure: The approximate solubility of CHP in 37 selected solvent systems (Table 13) was estimated by solvent addition technique. The following procedure was used: • Approximately 20 mg of CHP Pattern 1 was weighed out into each of 37vials. • Each solvent/solvent mixture was added to the appropriate vial in 5 volume aliquots (100 μL) until dissolution was observed or a maximum of 2 mL solvent was added. • In between additions, the sample was heated to 40° C. to check for dissolution at elevated temperature. • If 2 mL of solvent was added without dissolution of the material, solubility was calculated to be below 10 mg/mL. • After solvent addition, all 37 vials were placed in a fridge to crash cool between 2-8° C. for ca. 18 hours. • Any solids present were isolated by centrifuge filtration and analyzed by XRPD (where material amount allowed). • Where no solids were produced, vials were uncapped and left to evaporate at ambient temperature. • Any solids present were analyzed by XRPD (where material amount allowed).

[3] = Dynamic vapor sorption (DVS) at 25 °C with post-DVS XRPD
Procedure: DVS was carried out by placing an approximately 10-20 mg sample into a mesh vapour sorption balance pan and loaded into a DVS Intrinsic Dynamic Vapour Sorption Balance by Surface Measurement Systems. The sample was subjected to a ramping profile from 40 to 90% relative humidity (RH) at 10% increments, maintaining the sample at each step until a stable weight had been achieved (dm/dt 0.004%, minimum step length 30 minutes, maximum step length 500 minutes) at 25° C. After completion of the sorption cycle, the sample was dried using the same procedure to 0% RH and then a second sorption cycle back to 40% RH. Two cycles were performed. The weight change during the sorption/desorption cycles were plotted, allowing for the hygroscopic nature of the sample to be determined. XRPD analysis was then carried out on any solid retained.
Approximately, 10-20 mg of sample was placed into a mesh vapor sorption balance pan and loaded into a DVS Intrinsic dynamic vapor sorption balance by Surface Measurement Systems. The sample was subjected to a ramping profile from 40-90% relative humidity (RH) at 10% increments, maintaining the sample at each step until a stable weight had been achieved (dm/dt 0.004%, minimum step length 30 minutes, maximum step length 500 minutes) at 25° C. After completion of the sorption cycle, the sample was dried using the same procedure to 0% RH and then a second sorption cycle back to 40% RH. Two cycles were performed. The weight change during the sorption/desorption cycles were plotted, allowing for the hygroscopic nature of the sample to be determined. XRPD analysis was then carried out on any solid retained.

[4] = Solution state chemical stability in water/acetone and EtOH/water/MtBE (HPLC purity); conditions: 10 mg/ml; for Observation: up to 20 h
Procedure: Solution state chemical stability of the compound was studied in different solvent systems at different temperatures (Table 4). The solution was held at 50° C. and 80° C., and purity of the solution was tracked. The compound was generally stable for at least 20 hours.

[5] = GMP stability study of CHP anhydrate and CHP hydrate under accelerated conditions (total impurities); conditions: for Growth of total Impurities: 40 °C/75% RH
Procedure: CHP anhydrate (Pattern 1) and hydrate (Pattern 2) compounds were manufactured under GMP conditions. A stability study for the CHP anhydrate compound was conducted under ccelerated conditions (40±5° C./75±5% RH) for six months and room temperature conditions (25±5° C./60±5% RH) for 12 months. A further stability study for the CHP hydrate compound was conducted under accelerated conditions (40±5° C./75±5% RH) for 6 months (Table 18).

[6] = pKa analysis via potentiometric acid/base titration
Procedure: pKa analysis was carried out on Pattern 1 via a potentiometric technique which is acid/base titration to determine the pKa point.

μL for Dissolution at 37° C. ([1]; buffer pH 1): 300 µL
μL for Dissolution at 37° C. ([1]; buffer pH 4): 300 µL
μL for Dissolution at 37° C. ([1]; buffer pH 6.8): 300 µL
μL for Dissolution at 37° C. ([1]; buffer pH 7.2): 300 µL
Approximate Solubility ([2]; THF): ≤ 10000 µg/mL
Approximate Solubility ([2]; acetone): ≤ 10000 µg/mL
Approximate Solubility ([2]; acetonitrile): ≤ 10000 µg/mL
Approximate Solubility ([2]; water): ≥ 200000 µg/mL
Approximate Solubility ([2]; water:acetone [90:10]): ≥ 200000 µg/mL
DVS maximum uptake after conversion to Pattern 2 ([3]; between 0 and 90% RH, 25 °C): 0.8 wt %
DVS weight gain (change in mass) ([3]; from 60% RH to 90% RH, 25 °C): 6.3%
Purity (a %) ([4]; (EtOH:H2O = 9:1):MTBE = 1:3 (v/v), 50 °C, 0 h): 99.82%
Purity (a %) ([4]; (EtOH:H2O = 9:1):MTBE = 1:3 (v/v), 50 °C, 2 h): 99.77%
Purity (a %) ([4]; (EtOH:H2O = 9:1):MTBE = 1:3 (v/v), 50 °C, 20 h): 99.82%
Observation ([4]; (EtOH:H2O = 9:1):MTBE = 1:3 (v/v), 50 °C): No change
Purity (a %) ([4]; EtOH:H2O = 9:1 (v/v), 50 °C, 0 h): 99.76%
Purity (a %) ([4]; EtOH:H2O = 9:1 (v/v), 50 °C, 2 h): 99.86%
Purity (a %) ([4]; EtOH:H2O = 9:1 (v/v), 50 °C, 20 h): 99.69%
Observation ([4]; EtOH:H2O = 9:1 (v/v), 50 °C): No change
Purity (a %) ([4]; H2O, 80 °C, 0 h): 99.82%
Purity (a %) ([4]; H2O, 80 °C, 2 h): 99.77%
Purity (a %) ([4]; H2O, 80 °C, 20 h): 99.82%
Observation ([4]; H2O, 80 °C): No change
Purity (a %) ([4]; H2O:Acetone = 0.5:9.5 (v/v), 50 °C, 0 h): 99.77%
Purity (a %) ([4]; H2O:Acetone = 0.5:9.5 (v/v), 50 °C, 2 h): 99.72%
Purity (a %) ([4]; H2O:Acetone = 0.5:9.5 (v/v), 50 °C, 20 h): 99.73%
Observation ([4]; H2O:Acetone = 0.5:9.5 (v/v), 50 °C): No change
Growth of total Impurities ([5]; 0M): 0%
Growth of total Impurities ([5]; 1M): 0%
Growth of total Impurities ([5]; 3M, listed as CHP anhydrate (pattern 1)): 0.27%
Growth of total Impurities ([5]; 6M, listed as CHP anhydrate (pattern 1)): 0.53%
Water content reached by moisture absorption ([5]; during the stability study): 7%
pKa [6]: 6.4 and 6.38
Compound: O=C1N[C@@H](Cc2cnc[nH]2)C(=O)N2CCC[C@@H]12 [Pattern 1, Cyclo (-His-Pro)]
Post-DVS XRPD form ([3]; after DVS cycles at 25 °C): a new form, assigned as pattern 2; also recorded: re-crystallized to pattern 2
